Each compound was assayed on HT-1080 (ATCC, CCL-121) cells (assay: HT-1080 cell viability assay with ferroptosis inducer RSL3 (Cell Titer-Glo)). Conditions: HT-1080 cells treated with RSL3; 3-fold, 10-point dilution, 1.1 μM highest concentration; Table 3; read-out: EC50 (nM), ferroptosis inhibitory activity.
Assay type: cell-based
Outline: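 HT-1080 cells (6000 per well) were cultured overnight at 37 °C, then co-treated with RSL3 and compound in a 3-fold, 10-point series topping at 1.1 μM. Viability was read by CellTiter-Glo luminescence and normalized to untreated controls. EC50 came from a sigmoidal non-linear regression fit.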

SMILES | EC50 [nM]
Cc1cc(N2CCC(C(F)(F)F)C2)ccc1Nc1ccc2c(c1)OCC(=O)N2 (stereo not drawn) [Compound 588, 7-((2-methyl-4-(3-(trifluoromethyl)pyrrolidin-1-yl)phenyl)amino)-2H-benzo[b][1,4]oxazin-3(4H)-one] | 0.1 to 100

Same assay, conditions: Homo sapiens; HT-1080 cells treated with RSL3; 3-fold, 10-point dilution, 1.1 μM highest concentration; Table 2; read-out: EC50 (nM), ferroptosis inhibitory activity

EC50 [nM] | SMILES
0.1 to 100 | CN(C)c1cn(C)c2cccc(Nc3ccc(N4CCC(C(F)(F)F)CC4)cc3)c12 [Compound 399, N3,N3,1-trimethyl-N4-(4-(4-(trifluoromethyl)piperidin-1-yl)phenyl)-1H-indole-3,4-diamine]
0.1 to 100 | CN1C(=O)CCOc2cc(Nc3ccc(N4CCC(C(F)(F)F)CC4)cc3)ccc21 [Compound 3, 5-methyl-8-((4-(4-(trifluoromethyl)piperidin-1-yl)phenyl)amino)-2,3-dihydrobenzo[b][1,4]oxazepin-4(5H)-one]
0.1 to 100 | Cn1cc(C(N)=O)c2ccc(Nc3ccc(N4CCC(C(F)(F)F)CC4)cc3)cc21 [Compound 403, 1-methyl-6-((4-(4-(trifluoromethyl)piperidin-1-yl)phenyl)amino)-1H-indole-3-carboxamide]
0.1 to 100 | Cn1c(=O)oc2cc(Nc3ccc(N4CCC(C(F)(F)F)CC4)cc3)ccc21 [Compound 256]
0.1 to 100 | Cn1ncc2cc(Nc3ccc(N4CCC(C(F)(F)F)CC4)cc3)ccc21 [Compound 364, 1-methyl-N-(4-(4-(trifluoromethyl)piperidin-1-yl)phenyl)-1H-indazol]
0.1 to 100 | CC1CCN(c2c(F)cc(Nc3ccc4c(c3)CN(C)C4=O)cc2F)CC1 [Compound 192, 5-((3,5-difluoro-4-(4-methylpiperidin-1-yl)phenyl)amino)-2-methylisoindolin-1-one]
0.1 to 100 | Cn1c(=O)n(C)c2ncc(Nc3ccc(N4CCC(C(F)(F)F)CC4)cc3)cc21 [Compound 343, 1,3-dimethyl-6-((4-(4-(trifluoromethyl)piperidin-1-yl)phenyl)amino)-1,3-dihydro-2H-imidazo[4,5-b]pyridin-2-one]
0.1 to 100 | CC1CCN(c2ccc(Nc3cc(Cl)c4c(c3)CN(C)C4)cc2)CC1 [Compound 267, 7-chloro-2-methyl-N-(4-(4-methylpiperidin-1-yl)phenyl)isoindolin-5-amine]
0.1 to 100 | COc1cc(Nc2ccc(N3CCC(C(F)(F)F)CC3)cc2)cc2c1oc(=O)n2C [Compound 400, 7-methoxy-3-methyl-5-((4-(4-(trifluoromethyl)piperidin-1-yl)phenyl)amino)benzo[d]oxazol-2(3H)-one]
0.1 to 100 | FC(F)(F)C1CCN(c2ccc(Nc3ccc4nc[nH]c4c3)cc2)CC1 [Compound 357, N-(4-(4-(trifluoromethyl)piperidin-1-yl)phenyl)-1H-benzo[d]imidazol-6-amine]
0.1 to 100 | O=C(C1CC1)N1Cc2ccc(Nc3ccc(N4CCC(C(F)(F)F)CC4)cc3)cc2C1 [Compound 190, cyclopropyl(5-((4-(4-(trifluoromethyl)piperidin-1-yl)phenyl)amino)isoindolin-2-yl)methanone]
0.1 to 100 | CC1CCN(c2ccc(Nc3ccc4oc(=O)n(C)c4c3)cc2)CC1 [Compound 286, 3-methyl-5-((4-(4-methylpiperidin-1-yl)phenyl)amino)benzo[d]oxazol-2(3H)-one]
0.1 to 100 | CN1Cc2cc(Nc3ccc(N4CCC(C(F)(F)F)CC4)cc3)cnc2C1=O [Compound 194, 6-methyl-3-((4-(4-(trifluoromethyl)piperidin-1-yl)phenyl)amino)-5,6-dihydro-7H-pyrrolo[3,4-b]pyridin-7-one]
0.1 to 100 | O=c1ccc2cc(Nc3ccc(N4CCC(C(F)(F)F)CC4)cc3)ccc2o1 [Compound 123, 6-((4-(4-(trifluoromethyl)piperidin-1-yl)phenyl)amino)-2H-chromen-2-one]
0.1 to 100 | O=c1[nH]c2cc(Nc3ccc(N4CCC(C(F)(F)F)CC4)cc3)ccc2o1 [Compound 433, 5-((4-(4-(trifluoromethyl)piperidin-1-yl)phenyl)amino) benzo[d]oxazol-2(3H)-one]

Continued, compound first:

SMILES | EC50 [nM]
CC1CCC(C)N1c1ccc(Nc2ccc3c(=O)n(C)[nH]c3c2)cc1 (stereo not drawn) [Compound 259, 6-((4-(2,5-dimethylpyrrolidin-1-yl)phenyl)amino)-2-methyl-1,2-dihydro-3H-indazol-3-one] | 0.1 to 100
CC1CCN(c2ccc(Nc3ccc4c(ccn4C)c3)cc2)CC1 [Compound 329, 1-methyl-N-(4-(4-methylpiperidin-1-yl)phenyl)-1H-indol-5-amine] | 0.1 to 100
CC1CN(c2ccc(Nc3ccc4c(c3)oc(=O)n4C)cc2)CC(C)O1 (stereo not drawn) [Compound 317, 6-((4-(2,6-dimethylmorpholino)phenyl)amino)-3-methylbenzo[d]oxazol-2(3H)-one] | 0.1 to 100
CN1Cc2cc(Nc3ccc4c(c3)OCCO4)ccc2C1=O [Compound 229, 5-((2,3-dihydrobenzo[b][1,4]dioxin-6-yl)amino)-2-methylisoindolin-1-one] | 0.1 to 100
COCCOCCN(C)c1ccc(Nc2ccc3c(c2)n(C)c(=O)n3C)cc1 [Compound 369, 5-((4-((2-(2-methoxyethoxy)ethyl)(methyl)amino)phenyl)amino)-1,3-dimethyl-1,3-dihydro-2H-benzo[d]imidazol-2-one] | 100 to 1000
CCC1Oc2cc(Nc3ccc(N4CC(C)OC(C)C4)cc3)ccc2N(C)C1=O (stereo not drawn) [Compound 81, 7-((4-(2,6-dimethylmorpholino)phenyl)amino)-2-ethyl-4-methyl-2H-benzo[b][1,4]oxazin-3(4H)-one] | 0.1 to 100
Cc1cc(N2CC(C)OC(C)C2)ccc1Nc1ccc2nn(C)cc2c1 (stereo not drawn) [Compound 445, N-(4-(2,6-dimethylmorpholino)-2-methylphenyl)-2-methyl-2H-indazol-5-amine] | 0.1 to 100
COC1(C(F)(F)F)CCN(c2ccc(Nc3ccc4c(c3)OCC(=O)N4)cc2)CC1 [Compound 162, 7-((4-(4-methoxy-4-(trifluoromethyl)piperidin-1-yl)phenyl)amino)-2H-benzo[b][1,4]oxazin-3(4H)-one] | 0.1 to 100
CC1CCN(c2ccc(Nc3ccc4c(c3)n(C)c(=O)n4C)cc2F)CC1 [Compound 283, 5-((3-fluoro-4-(4-methylpiperidin-1-yl)phenyl)amino)-1,3-dimethyl-1,3-dihydro-2H-benzo[d]imidazol-2-one] | 0.1 to 100
Cn1c(=O)n(C)c2cc(Nc3ccsc3)ccc21 [Compound 342, 1,3-dimethyl-5-(thiophen-3-ylamino)-1,3-dihydro-2H-benzo[d]imidazol-2-one] | 100 to 1000
CC1CCN(c2ncc(Nc3ccc4c(c3)n(C)c(=O)n4C)cn2)CC1 [Compound 376, 1,3-dimethyl-5-((2-(4-methylpiperidin-1-yl)pyrimidin-5-yl)amino)-1,3-dihydro-2H-benzo[d]imidazol-2-one] | 0.1 to 100
Cc1nc(N2CC(C)OC(C)C2)ccc1Nc1ccc2c(c1)OCC(=O)N2C (stereo not drawn) [Compound 69, 7-((6-(2,6-dimethylmorpholino)-2-methylpyridin-3-yl)amino)-4-methyl-2H-benzo[b][1,4]oxazin-3(4H)-one] | 0.1 to 100
Cc1cc(N2CC(C)OC(C)C2)ccc1Nc1ccc2c(c1)CN(C)C2 (stereo not drawn) [Compound 439, N-(4-(2,6-dimethylmorpholino)-2-methylphenyl)-2-methylisoindolin-5-amine] | 0.1 to 100
CC1CN(c2ccc(Nc3ccc4c(c3)c(C(N)=O)cn4C)cc2)CC(C)O1 (stereo not drawn) [Compound 425, 5-((4-(2,6-dimethylmorpholino)phenyl)amino)-1-methyl-1H-indole-3-carboxamide] | 0.1 to 100

Same assay, conditions: Homo sapiens; HT-1080 cells treated with RSL3; 3-fold, 10-point dilution, 1.1 μM highest concentration; Table 3; read-out: EC50 (nM), ferroptosis inhibitory activity

EC50 [nM] | SMILES
0.1 to 100 | COc1cc(Nc2cnc3c(c2)OCC(=O)N3C)ccc1N1CCC(C(F)(F)F)CC1 [Compound 464, 7-({3-methoxy-4-[4-(trifluoromethyl)piperidin-1-yl]phenyl}amino)-4-methyl-2H-pyrido[3,2-b][1,4]oxazin-3-one]
0.1 to 100 | Cc1cc(N2CCC(C(F)(F)F)CC2)ccc1Nc1ccn2nccc2c1 [Compound 612, N-(2-methyl-4-(4-(trifluoromethyl)piperidin-1-yl)phenyl) pyrazolo[1,5-a]pyridin-5-amine]
0.1 to 100 | Cc1cc(N2CCC(C(F)(F)F)CC2)ccc1Nc1ccc2c(c1)OCCC(=O)N2 [Compound 533]

Second part, the compound before the results:

SMILES | EC50 [nM]
Cc1cc(N2CC(F)C2)ccc1Nc1ccc2c(c1)OC[C@H](N)C(=O)N2 [Compound 611, (S)-3-amino-8-((4-(3-fluoroazetidin-1-yl)-2-methylphenyl)amino)-2,3-dihydrobenzo[b][1,4]oxazepin-4(5H)-one] | 0.1 to 100
Cc1cc(N2CCC(C(C)(C)O)CC2)ccc1Nc1ccc2c(c1)OCC(=O)N2 [Compound 542, 7-((4-(4-(2-hydroxypropan-2-yl)piperidin-1-yl)-2-methylphenyl)amino)-2H-benzo[b][1,4]oxazin-3(4H)-one] | 0.1 to 100
Cc1cc(N2CCC(F)(F)CC2)ccc1Nc1ccc2c(c1)OCC(=O)N2 [Compound 525, 7-((4-(4,4-difluoropiperidin-1-yl)-2-methylphenyl)amino)-2H-benzo[b][1,4]oxazin-3(4H)-one] | 0.1 to 100
Cc1c(Nc2ccc3c(c2)OCC(=O)N3)ccc(N2CCC(C(F)(F)F)CC2)c1C#N [Compound 537, 2-methyl-3-((3-oxo-3,4-dihydro-2H-benzo[b][1,4]oxazin-7-yl)amino)-6-(4-(trifluoromethyl)piperidin-1-yl)benzonitrile] | 0.1 to 100
Cc1cc(N2CC(F)C2)ccc1Nc1ccc2c(c1)OCC(=O)N2 [Compound 572, 7-(4-(3-fluoroazetidin-1-yl)-2-methylphenylamino)-2H-benzo[b][1,4]oxazin-3(4H)-one] | 0.1 to 100
Cc1cc(N2CCC(F)CC2)ccc1Nc1ccc2c(c1)OCC(=O)N2 [Compound 518, 7-((4-(4-fluoropiperidin-1-yl)-2-methylphenyl)amino)-2H-benzo[b][1,4]oxazin-3(4H)-one] | 0.1 to 100
